# Assay results: patent US11939377B2, “Affinity matured CD22-specific monoclonal antibody and uses thereof” (The U.S.A., as represented by the Secretary, Department of …, priority 2018, dated 2024)
# What was measured:
# [1] = test system: CD22 expression on ALL and DLBCL cell lines (Nalm6, Kopn8, SEM, Pfeiffer, Toledo, PDX); experiment: CD22 expression on leukemia/lymphoma cells by flow cytometry after drug exposure in vitro; assay type: cell-based, human
# Procedure: FIGS. 3A-3D: (FIG. 3A) Four cell lines (Nalm6, Kopn8, Pfieffer and Toldeo) were co-incubated with 1 ng/ml Bryostatin 1 for 24 hours and analyzed using flow cytometry one day after Bryostatin 1 exposure. Site density was analyzed using standardized Quantibrite-PE beads. (FIG. 3B) Cell lines were co-incubated with 1 ng/ml Bryostatin 1 for 24 hours, washed, and analyzed using flow cytometry at 1 and 7 days after Bryostatin 1 exposure. Fold change was calculated based on site density: (Cell line Bryostatin 1—Cell line DMSO)/Cell line DMSO. (FIG. 3C) NSG mice were injected with 1×10^6 GPF-positive Nalm6 leukemia cells on Day 0. Bryostatin 1 was administered at 0.8 μg/kg on Day 3. Mice were sacrificed 7 and 12 days after Bryostatin 1 injection and CD22 was evaluated by flow cytometry. (FIG. 3D) CD22-low relapse PDX cell line was cultured in vitro with 1 nmol/L Bryostatin 1 for 24 hours and measured for CD22 expression using CD22 antibody.
# FIGS. 10A-10E: (FIG. 10A) Three cell lines (Toldeo, Kopn8 and Nalm6) were co-incubated with Bryostatin 1 at varying concentrations for 24 hours. At 24 hours, cells were collected for protein kinase C (PKC)-βII isoform analysis by western blot. (FIG. 10B) KOPN8 or SEM cell lines were exposed to Bryostatin 1 for 16, 24, 48 or 72 hours. RNA was extracted from cells and analyzed using RNAseq. (FIG. 10C) Immunofluorescent staining of CD22 was conducted through permeabilization followed by staining of CD22. (FIG. 10D) Four cell lines were co-incubated with various combinations of Enzastaurin (10 μM), Staurosporine (100 μM), or Bryostatin 1 (1 nM) for 24 hours. CD22 expression was assessed using flow cytometry. MFI fold change=CD22 MFI^Bryostatin1/CD22 MFI^DMSO. (FIG. 10E) Cell lines were co-incubated with 1 nM Bryostatin 1 for 24 hours and measured for CD22 expression using CD22-PE antibody. MFI fold change=CD22 MFI^Bryostatin 1/CD22 MFI^DMSO.
# FIG. 11: CD22^lo or parental Nalm6 cell lines were exposed to 1 ng/ml Bryostatin 1 for 24 hours. CD22 expression was assessed using flow cytometry.
# For all in vitro experiments and tumor/CAR pretreatment prior to intravenous injection, Bryostatin 1 was administered to cells at a concentration of 1 ng/mL. Dimethyl sulfoxide (DMSO) vehicle control was administered to control-treated cells at an equal volume. Prior to co-culture or intravenous injection, Bryostatin 1- and DMSO-treated cells were washed 3x in sterile PBS. For all in vivo experiments, Bryostatin 1 was diluted in PBS and administered via intraperitoneal injection at a dose of 40 μg/kg (1 μg/25 g mouse). For control-treated groups, an equal volume of DMSO was diluted in PBS and administered in the same manner
# FACS analysis of cell surface CAR and protein expression was performed using an LSR II Fortessa flow cytometer (BD Biosciences). CD22-CAR was detected by incubation with 22-Fc (R&D Systems), followed by incubation with human IgG-specific PE-F(ab)2 (Thermo Fisher Scientific). The following human monoclonal antibodies were used for detection of cell surface proteins: CD22-APC, CD22-PE, CD19-Pacific Blue, CD45-PerCP/Cy5.5, CD3-APC/Cy7, PD1-PE/Cy7, LAG3-APC, TIM3-Pacific Blue, CD8-APC, CD8-PE/Cy7, CD45RA-APC, CD45RO-PE/Cy7, CCR7-Pacific Blue, CD4-Pacific Blue, CD69-APC (all from BioLegend). CD22 site density was determined using QuantiBrite-PE beads (BD Biosciences) using methods previously described (Jasper et al., Cytometry B Clin Cytom 80(2):83-90, 2011). Dead cells were identified using eFluor 506 fixable viability dye (Thermo Fisher Scientific). GFP-expressing leukemia cells were identified through the FITC channel.
# [2] = test system: ALL and DLBCL tumor cells (Nalm6 site density lines and others); experiment: In vitro cytokine / granzyme B production assay (ELISA), CAR T cells co-cultured with tumor cells; assay type: cell-based, human
# Procedure: For cytokine production assays, CAR or mock T cells were washed to remove IL-2 and re-suspended in RPMI medium. 1×10^5 effector cells were then co-cultured with tumor cells in RPMI at a 1:1 effector to target ratio in 96-well plates and incubated at 37° C. for 20 hours. The plates were spun at 1200 RPM for 6 minutes to pellet the cells, and cytokine concentrations in the culture supernatants were measured using IL-2 ELISA (R&D systems), IFNγ ELISA (R&D systems), or granzyme B ELISA (Thermo Fisher Scientific) kits according to the manufacturer's directions.
# [3] = CAR T cells pre-treated 1 ng/ml 24 hours, co-culture with ALL or DLBCL cell lines
compound,measurement,setting,value
CCC/C=C/C=C/C(=O)O[C@H]1/C(=C/C(=O)OC)C[C@H]2C[C@H]([C@@H](C)O)OC(=O)C[C@H](O)C[C@@H]3C[C@H](OC(C)=O)C(C)(C)[C@](O)(C[C@@H]4C/C(=C/C(=O)OC)C[C@H](/C=C/C(C)(C)[C@]1(O)O2)O4)O3 [Bryostatin 1],persistence of increased CD22 expression following removal of drug,"[1]; 24 hours exposure, washed, analyzed at 1 and 7 days",persisted for a week
same,CD22 expression on CD22^lo leukemia cells following exposure,"[1]; CD22^lo Nalm6, 1 ng/ml, 24 hours",did not demonstrate an increase
same,CD22 expression (MFI fold change),"[1]; KOPN8 and SEM, 1 nM, 24 hours",robust upregulation
same,CD22 on CD22-low relapse patient-derived ALL xenograft,"[1]; PDX cell line cultured in vitro, 1 nmol/L, 24 hours",upregulated
same,CD22 expression upon exposure,"[1]; all four cell lines (two pre-B ALL, two DLBCL), 1 ng/ml, 24 hours",significant increase
same,IFN-γ produced by pre-treated CD22 CAR relative to DMSO-control,[2]; [3],attenuated levels
same,granzyme B produced by pre-treated CD22 CAR relative to DMSO-control,[2]; [3],significantly increased levels
same,Granzyme B production by the CD19 CAR,[2]; SEM cells exposed to 1 nM for 24 hours,did not show improved Granzyme B production
same,"production of IL-2, IFN-γ, and granzyme B by the CD22 CAR","[2]; pre-treatment of B-ALL and DLBCL target cells, 1 ng/ml 24 hours",significantly enhanced
